Earlier results, collected in US20150132347A1, “TREATING INFLAMMATORY CONDITIONS AND IMPROVING ORAL HYGIENE USING METAL MODULATORS WITH METHYLSULFONYLMETHANE AS TRANSPORT ENHANCER” (priority 2012, published 2015).

Conditions: in water @ 79° F.

water solubility: 34 % w/v
SMILES: CS(C)(=O)=O [MSM, methylsulfonylmethane]
